Like-named read-outs stand apart in the source and are kept apart here.
Experiments:
Early Stage CoViD-19 = test system: Early Stage CoViD-19
Text: Subject 2, suffering early stage CoViD-19. Former professional sportsman (soccer), doesn't smoke, no alcohol, weight 75 kg. Pre-treatment history. […] Came to GP for treatment.
Treatment for four consecutive days of four subcutaneous injections as described for patient 1. First day of treatment is set as ‘Day 1’.

Virus Induced Pneumonia = test system: Virus Induced Pneumonia
Text: Subject 1 was a person, weight 85 kg, pre-condition asthma. […] Pre-treatment history:
Self-treatment with Ventolin and paracetamol. […] Sixth day. […] Patient thinks that the problem is serious, and contacts GP.
Treatment started for 9 consecutive days by four subcutaneous injections of a 0.06 w/w % phenol in physiological saline daily administered in: 1 and 2) the posterior margin of the sternocleidomastoid muscle on the level of the larynx knot at both left and right side of the body, each about 1 cm deep; 3) the middle of the upper socket of the sternum about 0.5 cm deep, and 4) the depression below the spinous process of the 7th cervical vertebra, about 0.5 cm deep. First day of treatment is set as ‘Day 1’

Flu Pneumonia = conditions: human, in vivo
[1] = Method: In an particularly attractive embodiment, the phenol is injected subcutaneously, i.e. in the soft tissue below the skin with a depth of up to 0.5-2.0 cm.
In another attractive embodiment, the phenol is administered intravenously.

MRSA Lung Infection = test system: MRSA Lung Infection
Method: Person, 88 kg, dyspnoea, cough, chest pain and fever, under urine catheter. Has used different antibiotic before and after operation prostate cancer and by lung infection.
Phenol reduce to 0.02% 15 ml. duration 10 minutes for 5 more days.

[2] = insulin comprising 0.2 to 1.0 mg per dose phenol as preservative; cited from earlier work
Critical Stage Covid-19 = test system: Critical Stage Covid-19
Method: Treated with concentration phenol 0.01% in 60 ml, drip infusion 20 minutes, once daily.
Day 6 lowered dose to 0.01% concentration in 30 ml. Stopped treatment after treatment day 9.

[3] = Day 1 (first day of treatment), four s.c. injections 0.06 w/w % phenol daily
[4] = at end of treatment (3 days normal body temperature), phenol 0.01% drip infusion once daily
[5] = day1, phenol 0.02% (in 30 ml), drip 15 minutes
[6] = day2, phenol 0.02% (in 30 ml), drip 15 minutes
[7] = day3, phenol 0.02% (in 30 ml), drip 15 minutes
[8] = day4, phenol 0.02% (in 30 ml), drip 15 minutes
[9] = day5, phenol 0.02% (in 30 ml), drip 15 minutes
[10] = day6, phenol 0.02% (in 15 ml), drip 10 minutes
[11] = day7, phenol 0.02% (in 15 ml), drip 10 minutes
[12] = day8, phenol 0.02% (in 15 ml), drip 10 minutes
[13] = day9, phenol 0.02% (in 15 ml), drip 10 minutes

Oc1ccccc1 [phenol]
Temperature (Early Stage CoViD-19; [3]): 38.4 °C
Temperature (Early Stage CoViD-19; Day 2): 37.2 °C
Temperature (Early Stage CoViD-19; Day 3): 36.8 °C
Temperature (Early Stage CoViD-19; Day 4): normal
Temperature (Early Stage CoViD-19; Day 5): normal
Duration of slight headache after treatment (Early Stage CoViD-19; after first treatment): about four
Time the slight cough remained (Early Stage CoViD-19; counted from Day 5, then fully gone): 5 days
Side effects (Early Stage CoViD-19; four consecutive days of s.c. injections): No other side effects noted
Injection location reaction (Early Stage CoViD-19; s.c. injection): slight pain at injection
Side effects after injection (Virus Induced Pneumonia; 9 consecutive days of s.c. injections): slight headache, no other side effect after injection
Temperature (Virus Induced Pneumonia; [3]): 38.1 °C
Short breath (Virus Induced Pneumonia; Day 2): Limited feeling of short breath and asthma
Temperature (Virus Induced Pneumonia; Day 2, four s.c. injections 0.06 w/w % phenol daily): 37.6 °C
Short breath (Virus Induced Pneumonia; Day 3): Less short breath
Temperature (Virus Induced Pneumonia; Day 3): 37.4 °C
Short breath (Virus Induced Pneumonia; Day 4): Short breath much better
Temperature (Virus Induced Pneumonia; Day 4): 37.4 °C
Short breath (Virus Induced Pneumonia; Day 5): Short breath slightly better
Temperature (Virus Induced Pneumonia; Day 5): 37.4 °C
Short breath (Virus Induced Pneumonia; Day 6): No more short breath
Temperature (Virus Induced Pneumonia; Day 6): 37.0 °C
Breathing (Virus Induced Pneumonia; Day 7): Breathing normal
Fever (Virus Induced Pneumonia; Day 7): No fever
Fever (Virus Induced Pneumonia; Day 8): No fever
Breathing (Flu Pneumonia): breaths quietly
Patient outcome (Flu Pneumonia): physical recovered with some cough
X-lung infiltrate (Flu Pneumonia): much improved
Fever (temperature) (Flu Pneumonia; iv): 36.8-37.5 °C
Heartbeat (Flu Pneumonia; iv): about 90 per minute
Duration of immediate effect ([1]; intravenous administration): 7 to 14 days
Time phenol may remain in the body ([1]; intravenous administration): about 24 hours
Duration of immediate effect ([1]; subcutaneous injection): about 7 days
Time phenol may remain in the body ([1]; subcutaneous injection): about 24 hours
X-lung: pneumonia (MRSA Lung Infection; Day 18th): almost recovered
Fever (temperature), reduced from 38.0 (MRSA Lung Infection; after 0.02% phenol 30 ml infusion once per day for 3 days): 37.4 °C
Temperature (MRSA Lung Infection; during 0.02% phenol 15 ml, 10 minutes, for 5 more days): under 37 °C
Accumulation of phenol in the body by daily use [2]: no significant accumulation
R/R (Critical Stage Covid-19; [4]): 20
SPO2 (Critical Stage Covid-19; [4]): 97%
R/R (Critical Stage Covid-19; [5]): 41
SpO2 (Critical Stage Covid-19; [5]): 91%
body temperature (Critical Stage Covid-19; [5]): 37.6 °C
R/R (Critical Stage Covid-19; [6]): 32
SpO2 (Critical Stage Covid-19; [6]): 93%
body temperature (Critical Stage Covid-19; [6]): 38.6 °C
R/R (Critical Stage Covid-19; [7]): 27
SpO2 (Critical Stage Covid-19; [7]): 94%
body temperature (Critical Stage Covid-19; [7]): 38.5 °C
R/R (Critical Stage Covid-19; [8]): 23
SpO2 (Critical Stage Covid-19; [8]): 96%
body temperature (Critical Stage Covid-19; [8]): 38.0 °C
R/R (Critical Stage Covid-19; [9]): 22
SpO2 (Critical Stage Covid-19; [9]): 96%
body temperature (Critical Stage Covid-19; [9]): 37.4 °C
day 6 evaluation: breathing (Critical Stage Covid-19; day 6): day 6 evaluation patient breaths normally, still stress, coughing, feels good, day 6 started walking (with infusion)
temperature, R/R, SpO2 (Critical Stage Covid-19; day 6): normal
R/R (Critical Stage Covid-19; [10]): 20
SpO2 (Critical Stage Covid-19; [10]): 97%
body temperature (Critical Stage Covid-19; [10]): 37.0 °C
R/R (Critical Stage Covid-19; [11]): 20
SpO2 (Critical Stage Covid-19; [11]): 97%
body temperature (Critical Stage Covid-19; [11]): 36.8 °C
R/R (Critical Stage Covid-19; [12]): 20
SpO2 (Critical Stage Covid-19; [12]): 97%
body temperature (Critical Stage Covid-19; [12]): 36.9 °C
day 9 evaluation: body temperature (Critical Stage Covid-19; day 9): day 9 evaluation patients three days normal body temperature.
R/R (Critical Stage Covid-19; [13]): 18
SpO2 (Critical Stage Covid-19; [13]): 97%
body temperature (Critical Stage Covid-19; [13]): 36.8 °C
Time after start of treatment at which improvement of R/R and SpO2 was measured (Critical Stage Covid-19; drip infusion once daily): 6 h

From patent publication US20230301933A1 (priority 2020, published 2023)
